Data taken from PubChem BioAssay AID1159565 (GlaxoSmithKline (GSK), 2015).
Calls of active or inactive are those of the source. No rule for the calls is given here.

Test system: T. cruzi-infected H9C2 cardiomyocytes, high-content imaging
Assay: intracellular T. cruzi amastigote inhibition, imaging, H9C2 host cardiomyocytes, host toxicity (AID 1159565);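 also: infected cells incubated 72 h after plating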
[1] = measured here: H9C2 host cell toxicity
[2] = measured here: amastigotes per cell

Compound | IC50 | IC50 [1] [µM] | IC50 [2] [µM]
COc1cccc(S(=O)(=O)Nc2ccc3c(c2)CC(N2CCC(NC(=O)C4CC4)CC2)C3)c1 (stereo not drawn) | > 50 µM (inactive) | > 50 | 32
O=C(NCCc1ccccn1)C(c1cn[nH]c1)N1CCN(c2ccc(Cl)c(Cl)c2)CC1 (stereo not drawn) | 0.16 µM | > 50 | 0.13
O=C(Cc1ccccc1)Nc1[nH]nc2sc(C(=O)NC3CCCC3)cc12 | 13 µM | 1.3 | 6.3
N#Cc1ccc(S(=O)(=O)N2CCN(Cc3cccc(-c4ccncc4)c3)CC2)cc1 | 0.25 µM | 25 | 0.2
Clc1cc(Br)ccc1OCCCCn1ccnc1 | 0.25 µM | 25 | 0.32
CCCc1cc(N)nc(-c2cc(CCC)cc(N)n2)c1 | 0.63 µM | 0.2 | 0.5
C[C@@H](Oc1cc(-n2cnc3ccc(O[C@H]4CCNC4)cc32)sc1C(N)=O)c1ccccc1Cl | 13 µM | 0.63 | 6.3
O=C(CN(c1cccc(C(F)(F)F)c1)S(=O)(=O)c1ccc(Cl)cc1)NCc1ccc(F)c(F)c1 | 0.79 µM | > 50 | 0.5
O=C(CN(Cc1ccccn1)Cc1ccccn1)NC1Cc2ccccc2C1 | 13 µM | > 79 | 6.3
CCn1c(-c2nonc2N)nc2c([C@@H](C)O)ncc(O[C@H](CN)c3ccccc3)c21 | 10 µM | 0.63 | 7.9
Clc1ccc(OCCN2CCCCC2c2cccnc2)c(Cl)c1 (stereo not drawn) | 0.2 µM | > 50 | 0.16
Fc1ccccc1N1C[C@H]2CCN(c3cccnc3)C[C@H]2C1 | 0.2 µM | > 50 | 0.2
NC(=O)c1ccc(-c2cccc(OCCN3CCN(C4CCCCC4)CC3)c2)cc1 | 1.6 µM | > 50 | 0.79
CN(C)Cc1ccc(N2CCC(NS(=O)(=O)c3ccc(Cl)cc3)CC2)cc1 | 0.32 µM | 13 | 0.25
CC1CCCN(S(=O)(=O)c2ccc(C(=O)Nc3nc(-c4ccccn4)cs3)cc2)C1 (stereo not drawn) | 0.5 µM | 3.2 | 0.25
O=C(Nc1nccs1)c1ccccc1Cn1cc([N+](=O)[O-])cn1 | > 50 µM (inactive) | > 50 | > 50
CC(C(=O)Nc1ccc(Br)cc1)N1CCN(c2ccc([N+](=O)[O-])cc2)CC1 (stereo not drawn) | 2.5 µM | > 50 | 3.2
Cc1nc2c(-c3cccs3)c(C)nn2c(NCCO)c1C | 32 µM | > 50 | 16
COc1cccc(C(=O)[C@H]2C[C@@H]2CN(Cc2cccnc2)Cc2cccnc2)c1 | 0.063 µM | > 50 | 0.05
CN(Cc1ccccc1)Cc1nnnn1C1CCN(Cc2ccc(-n3ccnc3)cc2)CC1 | 0.32 µM | > 50 | 0.25
CC(C)(C)CC(=O)NCc1noc(COc2ccccc2)n1 | 2.5 µM | > 50 | 2.5
O=C(NCCc1cccnc1)c1csc(-c2ccccc2)n1 | 0.5 µM | > 50 | 0.4
O=C(NCCc1csc(-c2ccc(F)cc2)n1)c1cccs1 | 0.4 µM | > 50 | 0.25
CCCn1c(NC(=O)CCn2cc(Br)cn2)nc2ccccc21 | 6.3 µM | 25 | 2.5

Compound | IC50 | IC50 [1] [µM] | IC50 [2] [µM]
COc1ccc(-c2cnc(NC(=O)c3cc(-c4ccccn4)n[nH]3)n2C)cc1 | 5 µM | > 50 | 4
CCC(CC)C(=O)Nc1ccc(-c2nnc(-c3ccc(OC)cc3)o2)cc1 | 13 µM | > 50 | 4
COCc1cc(Nc2ccc(Cl)cc2)nc(-c2ccccn2)n1 | 5 µM | 1.3 | 2.5
CC(CCc1ccccc1)NC(=O)CN(Cc1ccccn1)Cc1ccccn1 (stereo not drawn) | 10 µM | > 79 | 3.2
COc1ccc(C(=O)Nc2ccc(NC(=O)CO)cc2)cc1 | > 50 µM (inactive) | > 50 | > 50
C=CCOCC1Cn2nc([N+](=O)[O-])nc2O1 (stereo not drawn) | 1.3 µM | > 50 | 0.63
CN(C(=O)Nc1ccc2c(c1)CCN(C1CCC1)CC2)c1ccc(C#N)cc1 | 4 µM | > 50 | 2
O=C(C1CCCCC1)N1CCN(c2nnc(-c3ccccc3)c3ccccc23)CC1 | 0.63 µM | > 50 | 0.4
CC(C)(C)C(Cn1ccnc1)NC(=O)c1ccc2nc(C3CC3)oc2c1 (stereo not drawn) | 0.1 µM | > 50 | 0.079
COc1ncc(-c2ccc3nccc(-c4ccncc4)c3c2)cc1NS(=O)(=O)C1CC1 | 2.5 µM | 0.79 | 2
O=C(NCc1nnc2n1CCCCC2)c1ccc(-c2ccc(F)cc2)o1 | 1.6 µM | > 50 | 1
COc1ccc(C(=O)[C@H]2C[C@@H]2CN(Cc2ccccn2)Cc2ccccn2)cc1 | 1.6 µM | 25 | 1
CCOc1cc(NCCCN2CCN(C)CC2)c2ncccc2c1 | 1.3 µM | 32 | 1
COc1ccc2nccc(NC(=O)C3(OC)CCN(CC(O)c4ccc5c(c4)OCCO5)CC3)c2n1 (stereo not drawn) | 0.32 µM | 16 | 0.13
CC(=O)NC1(c2ccccc2)CCN(CC(=O)Nc2ccccc2-c2ccccc2)CC1 | 7.9 µM | > 50 | 1.6
CCCN1CCN(Cc2ccc(S(=O)(=O)Nc3cccc(C)c3)cc2)CC1 | 0.79 µM | > 50 | 0.63
O=C(CSc1ccc(-c2ccccn2)nn1)Nc1ccc(Cl)cc1 | 2.5 µM | > 50 | 2
CCc1cc(C(=O)Nc2nccn2-c2ccccc2)cs1 | 5 µM | 20 | 3.2
O=C(Nc1nc(-c2ccccn2)cs1)C1CCc2ccccc2C1 (stereo not drawn) | 2.5 µM | 4 | 2
COc1cccc(NS(=O)(=O)c2ccc3[nH]cc(C(=O)NCCC(C)C)c(=O)c3c2)c1 | 32 µM | 13 | 16
CCCCn1nnnc1CSc1nc(C)cc(C)c1C#N | 0.2 µM | > 50 | 0.1
COc1ccc(C2CC(c3ccccc3Cl)=NN2C(=O)CNC(=O)C2CCCC2)cc1 (stereo not drawn) | 3.2 µM | > 50 | 2
OC[C@@H](Nc1nccc(-c2c(-c3ccc(F)cc3)ncn2C2CCNCC2)n1)c1ccccc1 | 13 µM | 2 | 13
O=C(NCCc1csc(-c2ccc(F)cc2)n1)c1ccco1 | 1.6 µM | > 50 | 1.3

Compound | IC50 | IC50 [1] [µM] | IC50 [2] [µM]
CCCn1c(NC(=O)Cc2ccc(Cl)cc2)nc2ccccc21 | 2 µM | > 50 | 1.3
O=C(NC(c1ccc(Cl)cc1)c1cnccn1)C1CCN(C(=O)Nc2cccc(C(F)(F)F)c2)CC1 (stereo not drawn) | 0.63 µM | > 50 | 0.5
O=C(Cn1cnc2cc([N+](=O)[O-])ccc2c1=O)NCCc1ccc(Cl)cc1Cl | 0.4 µM | > 50 | 0.2
CCN(Cc1nc2ccc(C(=O)N3CCN(c4ncccn4)CC3)cc2[nH]1)C1CCCc2cccnc21 (stereo not drawn) | 13 µM | 16 | 2
COc1ccccc1CNc1cc(C2CC2)nc(-c2nccn2C)n1 | 0.79 µM | 0.63 | 1
CCNc1cc(-c2ccccn2)nc(Nc2ccccc2)n1 | 3.2 µM | 0.25 | 3.2
CC(C)(C)C(=O)NCCc1csc(-c2ccc(F)cc2)n1 | 3.2 µM | > 50 | 2.5
CCN(CC)c1ncc(C(=O)c2ccc([N+](=O)[O-])o2)s1 | 13 µM | 5 | 7.9
CN(Cc1ccc(C(N)=O)cc1)C(c1ccc(F)cc1)c1cccnc1 (stereo not drawn) | 0.25 µM | > 50 | 0.2
COc1cc(-c2nc(N3CCOCC3)sc2-c2ccnc(NC3CCOCC3)n2)ccc1Cl | 0.16 µM | > 50 | 0.1
CCS(=O)(=O)c1cccc(C(=O)Nc2nc(-c3ccccn3)cs2)c1 | 2.5 µM | 4 | 1.6
CC(C)Oc1ccc(C(=O)Nc2ccc(N3CCOCC3)c(Cl)c2)cc1 | 1.3 µM | > 50 | 1.3
COCCn1cnc2cc(NC(=O)C3CCCCC3)cc(C(=O)N3CCc4sccc4C3)c21 | 32 µM | > 50 | 20
O=S1N=C(NCCCN(Cc2ccc(F)cc2)c2ccccn2)C(NCc2ccncc2)=N1 (stereo not drawn) | 50 µM | > 50 | 40
O=S(=O)(NCC(c1cccnc1)N1CCN(c2ccccc2F)CC1)c1ccc(F)cc1 (stereo not drawn) | 0.2 µM | > 50 | 0.2
Cc1nc2nc(C)c(Cc3ccc(C(C)C)cc3)c(=O)n2[nH]1 | 0.79 µM | > 50 | 0.25
COc1ccc(-c2ccc3nnc(-c4ccc(O)c(OC)c4)n3c2)cn1 | 3.2 µM | > 50 | 2
CNC(=O)C1Cc2ccccc2N1C(=O)Cc1ccc(F)cc1 (stereo not drawn) | > 50 µM (inactive) | > 50 | > 50
O=C(NCC(c1cccnc1)N1CCc2ccccc2C1)C(=O)Nc1cccc(Cl)c1 (stereo not drawn) | 0.079 µM | 25 | 0.063
NC(=O)c1cc(NC(=O)c2ccccc2COc2ccccc2)ccc1Cl | 32 µM | > 50 | 25
O=C(Nc1nc(-c2ccc(F)cc2)cs1)c1ccc([N+](=O)[O-])s1 | 0.25 µM | 4 | 0.16
Cc1ccccc1NS(=O)(=O)c1ccc2[nH]cc(C(=O)NC3CCCC(C)C3C)c(=O)c2c1 (stereo not drawn) | 6.3 µM | 6.3 | 3.2
CCN(CC)c1ccc(S(=O)(=O)N(CC)CC)c2nonc12 | 50 µM | > 50 | 20
